Test results: US8697690B2, “Isoindolone M1 receptor positive allosteric modulators” (Merck Sharp & Dohme Corp., priority 2010, dated 2014)

biological target: T1, acetylcholine muscarinic M1 receptor (Homo sapiens, UniProt P11229); test: muscarinic FLIPR assay: intracellular calcium in CHOnfat/hM1 cells, potentiation of EC20 acetylcholine; assay type: cell-based; conditions: IP = inflection point calculated from FLIPR values, 4 min preincubation, then EC20 acetylcholine (3 nM final)
T1 construct: expressed in transfected cells; host or cells: CHOnfat cells (CHO with NFAT reporter background), Geneticin-selected
T1 sequence (P11229 1-460): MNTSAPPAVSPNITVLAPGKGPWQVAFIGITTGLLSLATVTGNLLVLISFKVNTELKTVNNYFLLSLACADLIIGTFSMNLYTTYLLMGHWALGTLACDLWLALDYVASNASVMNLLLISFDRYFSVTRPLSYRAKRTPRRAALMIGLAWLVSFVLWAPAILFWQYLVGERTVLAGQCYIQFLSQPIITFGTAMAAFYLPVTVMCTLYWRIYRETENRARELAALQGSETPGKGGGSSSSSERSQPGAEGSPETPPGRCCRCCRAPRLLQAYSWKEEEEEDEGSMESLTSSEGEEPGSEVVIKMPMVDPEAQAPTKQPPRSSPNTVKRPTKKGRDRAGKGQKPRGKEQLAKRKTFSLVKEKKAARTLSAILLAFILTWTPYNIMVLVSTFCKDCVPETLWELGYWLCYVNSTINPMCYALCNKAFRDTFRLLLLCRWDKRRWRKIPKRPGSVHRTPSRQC
Procedure: The assay studies the effect of one or several concentrations of test compounds on basal or acetylcholine-stimulated Ca^2+ levels using FLIPR.
Compounds are prepared and subjected to a preincubation period of 4 min. Thereafter, a single EC20 concentration of acetylcholine is added to each well (3 nM final). The intracellular Ca^2+ level of each sample is measured and compared to an acetylcholine control to determine any modulatory activity.
Cells: CHOnfat/hM1, hM2, hM3 or hM4 cells are plated 24 hr before the assay at a density of 18,000 cells/well (100 μL) in a 384 well plate. CHOnfat/hM1 and CHOnfat/hM3 Growth Medium: 90% DMEM (Hi Glucose); 10% HI FBS; 2 mM L-glutamine; 0.1 mM NEAA; Pen-Strep; and 1 mg/ml Geneticin, are added. For M2Gqi5CHOnfat and M4Gqi5CHOnfat cells, an additional 600 ug/ml hygromycin is added.
Equipment: 384 well plate, 120 μL addition plate; 96-well Whatman 2 ml Uniplate Incubator, 37° C., 5% CO2; Skatron EMBLA-384 Plate Washer; Multimek Pipetting System; Genesis Freedom 200 System; Mosquito System; Temo Nanoliter Pipetting System; and FLIPR^384 Fluorometric Imaging Plate Reader System are used.
Buffers. Assay Buffer: Hanks Balanced Salt Solution, with 20 mM Hepes, 2.5 mM Probenecid (Sigma P-8761) first dissolved in 1 N NaOH, 1% Bovine Serum Albumin (Sigma A-9647). Dye Loading Buffer: Assay Buffer plus 1% Fetal Bovine Serum and Fluo-4AM/Pluronic Acid Mixture. 2 mM Fluo-4AM ester stock in DMSO (Molecular Probes F-14202) Concentration of 2 μM in buffer for a final concentration of 1 μM in Assay. 20% Pluronic Acid Solution stock, with concentration of 0.04% in Buffer, 0.02% in Assay.
65 μL of 2 mM Fluo-4AM are mixed with 130 μL of 20% Pluronic Acid. The resulting solution and 650 μL FBS is added to the assay buffer for a total volume of 65 mL. Positive Controls: 4-Br-A23187: 10 mM in DMSO; final concentration […]. Acetylcholine: 10 mM in water, working stock at both 20 μM and 30 μM in assay buffer, final concentration of 10 μM. This is used to check the maximum stimulation of the CHOK1/hM1 cells. 20 μM (2×) acetylcholine is added in the preincubation part of the assay, and the 30 μM (3×) stock is added in the second part. (EC20)Acetylcholine: 10 mM in water, working stock of 9 nM (3×), and final concentration in assay is 3 nM. This is used after the preincubation with test compounds. Addition of the EC20 Acetylcholine to each well with a test compound will ascertain any modulator activity. 24 wells contain 3 nM Acetylcholine alone as a control.
Determining Activity of Putative Compounds:
Screening Plate Compounds are titrated in 96-well plates (columns 2-11), 100% DMSO, started at a concentration of 15 mM (150× stock concentration), and 3-fold serial dilutions using Genesis Freedom200 System. Four 96-well plates are combined into a 384-well plate using Mosquito Nanoliter Pipetting System by transferring 1 μl of serial diluted compounds to each well, and 1 mM acetylcholine (100× stock concentration) were added as a control. Using Temo, 49 μl assay buffer is added to each well of the 384-well plate right before assay.
In a 96-well Whatman 2 ml Uniplate, 9 nM Acetylcholine (3×) is pipetted into wells corresponding to the screening compounds, and into control wells. The 30 μM acetylcholine control (3×) is added into control wells, and the 3× agonist plate is transferred into a 384 well plate.
Cells are washed three times with 100 μL of buffer, leaving 30 μL of buffer in each well. Using Multimek, 30 μL of Dye Loading Buffer is added into each well and incubated at 37° C., 5% CO2 for up to one hr.
After 60 min, the cells are washed three times with 100 μL of buffer, leaving 30 μL of buffer in each well. The cell plate, screening plate, and agonist addition plates are placed on the platform in the FLIPR and the door closed. A signal test to check background fluorescence and basal fluorescence signal is performed. Laser intensity is adjusted if necessary. […]

| Compound | EC50 [nM] |
| --- | --- |
| O=C1c2cc(Cc3ccc(O)nc3)c3ccccc3c2CN1[C@H]1CCOC[C@@H]1O [Example 13, 1,5-Anhydro-2,3-dideoxy-3-{3-oxo-5-[(6-oxo-1,6-dihydropyridin-3-yl)methyl]-1,3-dihydro-2H-benzo[e]isoindol-2-yl}-L-threo-pentitol] | 20 |
| O=C1c2cc(Cc3ccc(Cl)nc3)c3ccccc3c2CN1[C@H]1CCCC[C@@H]1F [Example 4, 5-[(6-Chloropyridin-3-yl)methyl]-2-[(2S)-2-fluorocyclohexyl]-1,2-dihydro-3H-benzo[e]isoindol-3-one] | 310 |
| O=C1c2cc(Cc3ccc(N4CCOCC4)nc3)c3ccccc3c2CN1[C@H]1CCCC[C@@H]1O [Example 7, 2-[(1S,2S)-2-Hydroxycyclohexyl]-5-[(6-morpholin-4-ylpyridin-3-yl)methyl]-1,2-dihydro-3H-benzo[e]isoindol-3-one] | 14 |
